According to patent US9701670B2, “Pyrazolyl-ureas as kinase inhibitors” (RESPIVERT LIMITED, priority 2013, dated 2017):

Legend:
[1] = test system: Differentiated U937 cells; assay: (l) Cell viability: MTT assay; assay type: cell-based, human; conditions: 1 μg/mL
Method: Differentiated U937 cells are pre-incubated with each test compound (final concentration 1 μg/mL or 10 μg/mL in 200 μL media indicated below) under two protocols: the first for 4 hr in 5% FCS RPMI1640 media and the second in 10% FCS RPMI1640 media for 24 h. The supernatant is replaced with new media (200 μL) and MTT stock solution (10 μL, 5 mg/mL) is added to each well. After incubation for 1 hr the media are removed, DMSO (200 μL) is added to each well and the plates are shaken lightly for 1 hr prior to reading the absorbance at 550 nm. The percentage loss of cell viability is calculated for each well relative to vehicle (0.5% DMSO) treatment. Consequently an apparent increase in cell viability for drug treatment relative to vehicle is tabulated as a negative percentage.

[2] = molecular target: p38 MAPKα isoform (MAPK14) (Homo sapiens (Human), UniProt Q16539); assay: p38 MAPKα enzyme inhibition (FRET, Z-LYTE), Method 1; assay type: biochemical; conditions: Method 1 (Table 4a1)
Sequence of p38 MAPKα isoform (MAPK14) (Q16539 whole entry, canonical isoform): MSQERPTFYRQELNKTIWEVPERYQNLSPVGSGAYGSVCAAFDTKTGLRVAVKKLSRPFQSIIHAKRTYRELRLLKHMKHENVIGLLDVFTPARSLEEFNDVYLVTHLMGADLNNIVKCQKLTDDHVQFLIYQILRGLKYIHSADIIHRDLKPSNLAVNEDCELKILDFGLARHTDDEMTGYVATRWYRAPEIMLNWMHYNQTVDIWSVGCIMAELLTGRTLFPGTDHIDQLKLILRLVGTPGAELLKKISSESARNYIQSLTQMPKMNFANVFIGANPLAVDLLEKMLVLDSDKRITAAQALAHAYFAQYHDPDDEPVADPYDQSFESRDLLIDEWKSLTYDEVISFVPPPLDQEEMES
Method: The enzyme inhibitory activities of compounds disclosed herein are determined by FRET using synthetic peptides labelled with both donor and acceptor fluorophores (Z-LYTE, Invitrogen Ltd., Paisley, UK).
The inhibitory activities of test compounds against the p38 MAPKα isoform (MAPK14: Invitrogen), are evaluated indirectly by determining the level of activation/phosphorylation of the down-stream molecule, MAPKAP-K2. The p38 MAPKα protein (80 ng/mL, 2.5 μL) is mixed with the test compound (2.5 μL of either 4 μg/mL, 0.4 μg/mL, 0.04 μg/mL or 0.004 μg/mL) for 2 hr at RT. […] The mixture is incubated for 1 hr at RT. Development reagent (protease, 5 μL) is added for 1 hr prior to detection in a fluorescence microplate reader (Varioskan® Flash, ThermoFisher Scientific).
In all cases, the site-specific protease cleaves non-phosphorylated peptide only and eliminates the FRET signal. Phosphorylation levels of each reaction are calculated using the ratio of coumarin emission (donor) over fluorescein emission (acceptor), for which high ratios indicate high phosphorylation and low ratios indicate low phosphorylation levels.

Compound	Cell viability at time point in d-U937 cells 4 h [1]	Cell viability at time point in d-U937 cells 24 h [1]	IC50 [2]
Cc1ccc(-n2nc(C(C)(C)C)cc2NC(=O)Nc2ccc(Oc3ccnc(Nc4cccc(C(N)=O)c4)n3)c3ccccc23)cc1 [Example 2, 3-((4-((4-(3-(3-(tert-Butyl)-1-(p-tolyl)-1H-pyrazol-5-yl)ureido)naphthalen-1-yl)oxy)pyrimidin-2-yl)amino)benzamide]	−ve (−ve and +ve indicate that the value is below and above respectively, the no significant effect threshold, defined as 30% inhibition at 1 μg/mL at the time point indicated.)	−ve (−ve and +ve indicate that the value is below and above respectively, the no significant effect threshold, defined as 30% inhibition at 1 μg/mL at the time point indicated.)	27 nM
Cc1ccc(-n2nc(C(C)(C)C)cc2NC(=O)Nc2ccc(Oc3ccnc(Nc4cccc(C(=O)NCCN5CCOCC5)c4)n3)c3ccccc23)cc1 [Example 3, 3-((4-((4-(3-(3-(tert-Butyl)-1-(p-tolyl)-1H-pyrazol-5-yl)ureido)naphthalen-1-yl)oxy)pyrimidin-2-yl)amino)-N-(2-morpholinoethyl)benzamide]	−ve (−ve and +ve indicate that the value is below and above respectively, the no significant effect threshold, defined as 30% inhibition at 1 μg/mL at the time point indicated.)	−ve (−ve and +ve indicate that the value is below and above respectively, the no significant effect threshold, defined as 30% inhibition at 1 μg/mL at the time point indicated.)	7 nM
COc1cc(C(=O)NCCO)ccc1Nc1nccc(Oc2ccc(NC(=O)Nc3cc(C(C)(C)C)nn3-c3ccc(C)cc3)c3ccccc23)n1 [Example 4, 4-((4-((4-(3-(3-(tert-Butyl)-1-(p-tolyl)-1H-pyrazol-5-yl)ureido)naphthalen-1-yl)oxy)pyrimidin-2-yl)amino)-N-(2-hydroxyethyl)-3-methoxybenzamide]	−ve (−ve and +ve indicate that the value is below and above respectively, the no significant effect threshold, defined as 30% inhibition at 1 μg/mL at the time point indicated.)	−ve (−ve and +ve indicate that the value is below and above respectively, the no significant effect threshold, defined as 30% inhibition at 1 μg/mL at the time point indicated.)	26 nM
COc1ccc(-n2nc(C(C)C)cc2NC(=O)Nc2ccc(Oc3ccnc(Nc4cc(OC)cc(C(=O)NCCN(C)C)c4)n3)c3ccccc23)cc1 [Example 6, N-(2-(Dimethylamino)ethyl)-3-((4-((4-(3-(3-isopropyl-1-(4-methoxyphenyl)-1H-pyrazol-5-yl)ureido)naphthalen-1-yl)oxy)pyrimidin-2-yl)amino)-5-methoxy benzamide]	−ve (−ve and +ve indicate that the value is below and above respectively, the no significant effect threshold, defined as 30% inhibition at 1 μg/mL at the time point indicated.)	−ve (−ve and +ve indicate that the value is below and above respectively, the no significant effect threshold, defined as 30% inhibition at 1 μg/mL at the time point indicated.)	
Cc1ccc(-n2nc(C(C)C)cc2NC(=O)Nc2ccc(Oc3ccnc(Nc4cc(C(=O)NCCN5CCOCC5)cc(C(F)(F)F)c4)n3)c3ccccc23)cc1 [Example 7, 3-((4-((4-(3-(3-isopropyl-1-(p-tolyl)-1H-pyrazol-5-yl)ureido)naphthalen-1-yl)oxy)pyrimidin-2-yl)amino)-N-(2-morpholinoethyl)-5-(trifluoromethyl)benzamide]	−ve (−ve and +ve indicate that the value is below and above respectively, the no significant effect threshold, defined as 30% inhibition at 1 μg/mL at the time point indicated.)	−ve (−ve and +ve indicate that the value is below and above respectively, the no significant effect threshold, defined as 30% inhibition at 1 μg/mL at the time point indicated.)	
COc1ccc(Nc2nccc(Oc3ccc(NC(=O)Nc4cc(C(C)(C)C)nn4-c4ccc(C)cc4)c4ccccc34)n2)cc1C(=O)NCCN1CCOCC1 [Example 13, 5-((4-((4-(3-(3-(tert-Butyl)-1-(p-tolyl)-1H-pyrazol-5-yl)ureido)naphthalen-1-yl)oxy)pyrimidin-2-yl)amino)-2-methoxy-N-(2-morpholinoethyl)benzamide]	−ve (−ve and +ve indicate that the value is below and above respectively, the no significant effect threshold, defined as 30% inhibition at 1 μg/mL at the time point indicated.)	−ve (−ve and +ve indicate that the value is below and above respectively, the no significant effect threshold, defined as 30% inhibition at 1 μg/mL at the time point indicated.)	
Cc1ccc(-n2nc(C(C)C)cc2NC(=O)Nc2ccc(Oc3ccnc(Nc4cccc(C(=O)NCCN5CCOCC5)c4)n3)c3ccccc23)cc1 [Example 19, 3-((4-((4-(3-(3-isopropyl-1-(p-tolyl)-1H-pyrazol-5-yl)ureido)naphthalen-1-yl)oxy)pyrimidin-2-yl)amino)-N-(2-morpholinoethyl)benzamide]	−ve (−ve and +ve indicate that the value is below and above respectively, the no significant effect threshold, defined as 30% inhibition at 1 μg/mL at the time point indicated.)	−ve (−ve and +ve indicate that the value is below and above respectively, the no significant effect threshold, defined as 30% inhibition at 1 μg/mL at the time point indicated.)	
COc1ccc(C(=O)NCCN(C)C)cc1Nc1nccc(Oc2ccc(NC(=O)Nc3cc(C(C)(C)C)nn3-c3ccc(C)cc3)c3ccccc23)n1 [Example 29, 3-((4-((4-(3-(3-(tert-butyl)-1-(p-tolyl)-1H-pyrazol-5-yl)ureido)naphthalen-1-yl)oxy)pyrimidin-2-yl)amino)-N-(2-(dimethylamino)ethyl)-4-methoxybenzamide]	−ve (−ve and +ve indicate that the value is below and above respectively, the no significant effect threshold, defined as 30% inhibition at 1 μg/mL at the time point indicated.)	−ve (−ve and +ve indicate that the value is below and above respectively, the no significant effect threshold, defined as 30% inhibition at 1 μg/mL at the time point indicated.)	
COc1ccc(-n2nc(C(C)C)cc2NC(=O)Nc2ccc(Oc3ccnc(Nc4cc(C)cc(C(=O)NCCN5CCOCC5)c4)n3)c3ccccc23)cc1 [Example 45, 3-((4-((4-(3-(3-isopropyl-1-(4-methoxyphenyl)-1H-pyrazol-5-yl)ureido)naphthalen-1-yl)oxy)pyrimidin-2-yl)amino)-5-methyl-N-(2-morpholinoethyl)benzamide]	−ve (−ve and +ve indicate that the value is below and above respectively, the no significant effect threshold, defined as 30% inhibition at 1 μg/mL at the time point indicated.)	−ve (−ve and +ve indicate that the value is below and above respectively, the no significant effect threshold, defined as 30% inhibition at 1 μg/mL at the time point indicated.)	
COc1cc(Nc2nccc(Oc3ccc(NC(=O)Nc4cc(C(C)(C)C)nn4-c4ccc(OC)nc4)c4ccccc34)n2)cc(C(=O)NCCN2CCOCC2)c1 [Example 57, 3-((4-((4-(3-(3-(tert-butyl)-1-(6-methoxypyridin-3-yl)-1H-pyrazol-5-yl)ureido)naphthalen-1-yl)oxy)pyrimidin-2-yl)amino)-5-methoxy-N-(2-morpholinoethyl)benzamide]	−ve (−ve and +ve indicate that the value is below and above respectively, the no significant effect threshold, defined as 30% inhibition at 1 μg/mL at the time point indicated.)	−ve (−ve and +ve indicate that the value is below and above respectively, the no significant effect threshold, defined as 30% inhibition at 1 μg/mL at the time point indicated.)	
COc1ccc(-n2nc(C(C)(C)C)cc2NC(=O)Nc2ccc(Oc3cc(Nc4cc(OC)cc(C(=O)NCCN5CCOCC5)c4)ncn3)c(C)c2C)cc1 [Example 91, 3-((6-(4-(3-(3-(tert-Butyl)-1-(4-methoxyphenyl)-1H-pyrazol-5-yl)ureido)-2,3-dimethylphenoxy)pyrimidin-4-yl)amino)-5-methoxy-N-(2-morpholinoethyl)benzamide]			9.6 nM
